From patent publication US20260315464A1, “COMPOSITIONS, METHODS, AND SYSTEMS FOR MODULATING SPLICING OF MSH3” (REVIR THERAPEUTICS, INC., priority 2023, published 2026) come the findings set out here.

This assay deals with MSH3. The assay can be described thus: QPCR assay for levels of MSH3 upon compound treatment in HEK293T or AD293 cells (fold-change of MSH3 transcript, EC50 of MSH3 downregulation; total MSH3 exons 13/14, exons 20/21; Table 8). The format is cell-based. As to conditions: for mrna remaining at 1 µM / mrna remaining at 10 µM: Homo sapiens, fold-change of the MSH3 transcript, normalized to GAPDH; for mrna remaining at 1 µM: 1 μM compound; for mrna remaining at 10 µM: 10 μM compound; for EC50: EC50 of MSH3 downregulation, XtalPi. As to the method: HEK293T or AD293 cells were treated with Compound 274 at 1 μM and […]. RNA, cDNA and qPCR was prepared using TaqMan Cells-to-CT Express kit (ThermoFisher Scientific). Taqman assays (ThermoFisher Scientific) were used for quantification of total MSH3 exons 13/14 (cat #4351372, ID #: Hs00988993_ml), total MSH3 exons 20/21 (cat #4351372, ID #: Hs00989000_ml), exon 13/PE14A (Fwd: 5′-[…]; Rev: 5′-[…]; Probe: 5′-[…]) and exon 20/PE21A (Fwd: 5′-[…]; Rev: 5′-[…]; Probe: 5′-[…]) mRNA expression. Taqman GAPDH (cat #4448489, ID #: Hs02758991_g1) was used as a reference for data normalization.

On to `Cc1nn(C)cc1-c1cc2c(cn1)CN(c1ccc(O[C@H]3C[C@]4(C)CC[C@](C)(C3)N4C)nn1)C2=O` [Compound 94, 6-(1,3-dimethyl-1H-pyrazol-4-yl)-2-(6-(((1R,3s,5S)-1,5,8-trimethyl-8-azabicyclo[3.2.1]octan-3-yl)oxy)pyridazin-3-yl)-2,3-dihydro-1H-pyrrolo[3,4-c]pyridin-1-one], for which the mrna remaining at 1 µM was determined as 106% and the mrna remaining at 10 µM was found to be 79%.
For `Cc1nn(C)nc1-c1cc2c(cn1)CN(c1ccc(O[C@H]3C[C@]4(C)CC[C@](C)(C3)N4)nn1)C2=O` [Compound 96, 6-(2,5-dimethyl-2H-1,2,3-triazol-4-yl)-2-(6-(((1R,3s,5S)-1,5-dimethyl-8-azabicyclo[3.2.1]octan-3-yl)oxy)pyridazin-3-yl)-2,3-dihydro-1H-pyrrolo[3,4-c]pyridin-1-one] the same measures were 79% and 119%.
For `CC[C@]12CC[C@](C)(C[C@@H](Oc3ccc(N4Cc5cnc(-c6cn(C)nc6C)cc5C4=O)nn3)C1)N2` [Compound 98, 6-(1,3-dimethyl-1H-pyrazol-4-yl)-2-(6-(((1S,3R,5R)-1-ethyl-5-methyl-8-azabicyclo[3.2.1]octan-3-yl)oxy)pyridazin-3-yl)-2,3-dihydro-1H-pyrrolo[3,4-c]pyridin-1-one] the same measures were 83% and 25%.
For `Cn1cc(-c2cc3c(cn2)CN(c2ccc(O[C@H]4C[C@]5(C)CC[C@](C)(C4)N5)nn2)C3=O)cn1` [Compound 99, 2-(6-(((1R,3s,5S)-1,5-dimethyl-8-azabicyclo[3.2.1]octan-3-yl)oxy)pyridazin-3-yl)-6-(1-methyl-1H-pyrazol-4-yl)-2,3-dihydro-1H-pyrrolo[3,4-c]pyridin-1-one] the same measures were 90% and 86%.
As to `CC[C@]12CC[C@](CC)(C[C@@H](Oc3ccc(N4Cc5cnc(-c6cn(C)nc6C)cc5C4=O)nn3)C1)N2` [Compound 100, 2-(6-(((1R,3s,5S)-1,5-diethyl-8-azabicyclo[3.2.1]octan-3-yl)oxy)pyridazin-3-yl)-6-(1,3-dimethyl-1H-pyrazol-4-yl)-2,3-dihydro-1H-pyrrolo[3,4-c]pyridin-1-one], the mrna remaining at 1 µM came out at 65% and the mrna remaining at 10 µM stood at 11%.
On the same counts, the results for `Cn1ncc(-c2cc3c(c(Cl)n2)CN(c2ccc(O[C@H]4C[C@]5(C)CC[C@](C)(C4)N5)nn2)C3=O)n1` [Compound 106, 4-chloro-2-(6-(((1R,3s,5S)-1,5-dimethyl-8-azabicyclo[3.2.1]octan-3-yl)oxy)pyridazin-3-yl)-6-(2-methyl-2H-1,2,3-triazol-4-yl)-2,3-dihydro-1H-pyrrolo[3,4-c]pyridin-1-one] are 121% and 130%.
For `Cn1cc(-c2cc3c(cn2)CN(c2ccc(O[C@H]4C[C@]5(C)CC[C@](C)(C4)N5)nn2)C3=O)c(F)n1` [Compound 107, 2-(6-(((1R,3s,5S)-1,5-dimethyl-8-azabicyclo[3.2.1]octan-3-yl)oxy)pyridazin-3-yl)-6-(3-fluoro-1-methyl-1H-pyrazol-4-yl)-2,3-dihydro-1H-pyrrolo[3,4-c]pyridin-1-one] the same measures were 97% and 75%.
In the case of `Cc1nn(C)cc1-c1cnc2c(c1)C(=O)N(c1ccc(OC3CC(C)(C)NC(C)(C)C3)nn1)C2` [Compound 141, 3-(1,3-dimethyl-1H-pyrazol-4-yl)-6-(6-((2,2,6,6-tetramethylpiperidin-4-yl)oxy)pyridazin-3-yl)-6,7-dihydro-5H-pyrrolo[3,4-b]pyridin-5-one], the mrna remaining at 1 µM stood at 67% and the mrna remaining at 10 µM came to 6%.
For the compound `CN(c1ccc(N2Cc3ncc(-c4cnn(C)c4)cc3C2=O)nn1)C1CC(C)(C)NC(C)(C)C1` [Compound 148, 6-(6-(methyl(2,2,6,6-tetramethylpiperidin-4-yl)amino)pyridazin-3-yl)-3-(1-methyl-1H-pyrazol-4-yl)-6,7-dihydro-5H-pyrrolo[3,4-b]pyridin-5-one], the mrna remaining at 1 µM worked out at 103% and the mrna remaining at 10 µM was 40%.
On to `Cc1nc(C)c(-c2cnc3c(c2)C(=O)N(c2ccc(OC4CC(C)(C)NC(C)(C)C4)nn2)C3)s1` [Compound 150, 3-(2,4-dimethylthiazol-5-yl)-6-(6-((2,2,6,6-tetramethylpiperidin-4-yl)oxy)pyridazin-3-yl)-6,7-dihydro-5H-pyrrolo[3,4-b]pyridin-5-one], for which the mrna remaining at 1 µM stood at 116% and the mrna remaining at 10 µM was determined as 77%.
On the same counts, the results for `Cc1nn(C)cc1-c1cnc2c(c1)C(=O)N(c1ccc(N(C)C3CC(C)(C)NC(C)(C)C3)nn1)C2` [Compound 156, 3-(1,3-dimethyl-1H-pyrazol-4-yl)-6-(6-(methyl(2,2,6,6-tetramethylpiperidin-4-yl)amino)pyridazin-3-yl)-6,7-dihydro-5H-pyrrolo[3,4-b]pyridin-5-one] are 81% and 19%.
For `[2H]C([2H])([2H])n1cc(-c2cnc3c(c2)C(=O)N(c2ccc(N(C)C4CC(C)(C)NC(C)(C)C4)nn2)C3)cn1` [Compound 161, 6-(6-(methyl(2,2,6,6-tetramethylpiperidin-4-yl)amino)pyridazin-3-yl)-3-(1-(methyl-d3)-1H-pyrazol-4-yl)-6,7-dihydro-5H-pyrrolo[3,4-b]pyridin-5-one] the same measures were 96% and 70%.
On the same counts, the results for `Cc1nc(C)c(-c2cnc3c(c2)C(=O)N(c2ccc(N(C)C4CC(C)(C)NC(C)(C)C4)nn2)C3)s1` [Compound 167, 3-(2,4-dimethylthiazol-5-yl)-6-(6-(methyl(2,2,6,6-tetramethylpiperidin-4-yl)amino)pyridazin-3-yl)-6,7-dihydro-5H-pyrrolo[3,4-b]pyridin-5-one] are 47% and 11%.
As to `Cc1nc(C)c(-c2cnc3c(c2)C(=O)N(c2ccc(O[C@H]4C[C@]5(C)CC[C@](C)(C4)N5)nn2)C3)s1` [Compound 174, 6-(6-(((1R,3s,5S)-1,5-dimethyl-8-azabicyclo[3.2.1]octan-3-yl)oxy)pyridazin-3-yl)-3-(2,4-dimethylthiazol-5-yl)-6,7-dihydro-5H-pyrrolo[3,4-b]pyridin-5-one], the mrna remaining at 1 µM is 103% and the mrna remaining at 10 µM is 62%.
On the same counts, the results for `Cc1nn(C)cc1-c1cnc2c(c1)C(=O)N(c1cnc(N(C)[C@H]3C[C@]4(C)CC[C@](C)(C3)N4)nn1)C2` [Compound 175, 3-(1,3-dimethyl-1H-pyrazol-4-yl)-6-(3-(((1R,3s,5S)-1,5-dimethyl-8-azabicyclo[3.2.1]octan-3-yl)(methyl)amino)-1,2,4-triazin-6-yl)-6,7-dihydro-5H-pyrrolo[3,4-b]pyridin-5-one] are 93% and 70%.
On the same counts, the results for `Cn1cc(-c2cnc3c(c2)C(=O)N(c2ccc(OC4CC(C)(C)NC(C)(C)C4)nn2)C3)c(C(F)(F)F)n1` [Compound 176, 3-(1-methyl-3-(trifluoromethyl)-1H-pyrazol-4-yl)-6-(6-((2,2,6,6-tetramethylpiperidin-4-yl)oxy)pyridazin-3-yl)-6,7-dihydro-5H-pyrrolo[3,4-b]pyridin-5-one] are 94% and 110%.
As a reminder, the EC50 is the concentration needed to bring the measured effect to its halfway point. For the compound `Cc1nn(C)nc1-c1cnc2c(c1)C(=O)N(c1ccc(N(C)[C@H]3C[C@]4(C)CC[C@](C)(C3)N4)nn1)C2` [Compound 178, 3-(2,5-dimethyl-2H-1,2,3-triazol-4-yl)-6-(6-(((1R,3s,5S)-1,5-dimethyl-8-azabicyclo[3.2.1]octan-3-yl)(methyl)amino)pyridazin-3-yl)-6,7-dihydro-5H-pyrrolo[3,4-b]pyridin-5-one], the EC50 worked out at 425 nM, the mrna remaining at 1 µM was determined as 10% and the mrna remaining at 10 µM is 5%.
For `Cc1nn(C)nc1-c1cnc2c(c1)C(=O)N(c1ccc(OC3CC(C)(C)NC(C)(C)C3)nn1)C2` [Compound 179, 3-(2,5-dimethyl-2H-1,2,3-triazol-4-yl)-6-(6-((2,2,6,6-tetramethylpiperidin-4-yl)oxy)pyridazin-3-yl)-6,7-dihydro-5H-pyrrolo[3,4-b]pyridin-5-one], the mrna remaining at 1 µM amounted to 93% and the mrna remaining at 10 µM is 8%.
`Cc1nn(C)nc1-c1cnc2c(c1)C(=O)N(c1ccc(N(C)C3CC(C)(C)NC(C)(C)C3)nn1)C2` [Compound 180, 3-(2,5-dimethyl-2H-1,2,3-triazol-4-yl)-6-(6-(methyl(2,2,6,6-tetramethylpiperidin-4-yl)amino)pyridazin-3-yl)-6,7-dihydro-5H-pyrrolo[3,4-b]pyridin-5-one]: a half-maximal response (EC50) required 1120 nM, the mrna remaining at 1 µM turned out to be 50% and the mrna remaining at 10 µM was found to be 8%.
As for `Cc1nn(C)cc1-c1cnc2c(c1)C(=O)N(c1ccc(O[C@H]3C[C@@]4(C)CC[C@](C)(N4)[C@H]3F)nn1)C2` [Compound 181, 3-(1,3-dimethyl-1H-pyrazol-4-yl)-6-(6-(((1S,2R,3S,5R)-2-fluoro-1,5-dimethyl-8-azabicyclo[3.2.1]octan-3-yl)oxy)pyridazin-3-yl)-6,7-dihydro-5H-pyrrolo[3,4-b]pyridin-5-one], the mrna remaining at 1 µM is 92% and the mrna remaining at 10 µM worked out at 103%.
